{"source": "paper PMC11676896", "about": "“Protective Action of Cannabidiol on Tiamulin Toxicity in Humans—In Vitro Study” (International Journal of Molecular Sciences, 2024)", "key": {"[1]": {"tested_on": "HepG2 cells", "assay": "NRU assay (lysosomal activity)", "format": "cell-based", "conditions": "Homo sapiens, HepG2, 72 h, read-out: inhibited concentration (IC50), NRU", "description": "The cytotoxic potential of the veterinary drug and its mixtures with cannabidiol at two non-toxic concentrations: 1.56 and 3.15 µg/mL, on the human SH-SY5Y, HepG2 and HEK 293 cell lines was assessed by decreased viability of the cells within five biochemical endpoints: mitochondrial activity and lysosomal activity (MTT assays, reducing the tetrazolium dye MTT 3-(4,5-dimethylthiazol-2-yl)-2,5-diphenyltetrazolium bromide and neutral red uptake (NRU) assays), total protein content (TPC assay), cellular membrane integrity (leakage lactate dehydrogenase (LDH) assay) and DNA synthesis (the bromodeoxyuridine/5-bromo-2′-deoxyuridine incorporation into the DNA cells (BrdU) assay) after 72 h exposition. […]\nThe human neuroblastoma (SH-SY5H), hepatoma (HepG2) and kidney cells (HEK 293) cells were purchased from the American Type Culture Collection: ATCCCRL-2266,ATCC HB-8065 and ATCC CRL-1573, respectively. […] Cytotoxicity was assessed after 72 h of exposure of the cells to the compounds. […]\nThis method is based on staining living cells with neutral red, which readily diffuses through the plasma membrane and accumulates in lysosomes. […] After 10 min of shaking, the absorbance of the dissolved NR was measured using a Synergy 2 Multi-Mode Microplate Reader (BioTek® Instruments Inc., Winooski, VT, USA) at 540 nm using a blank as a reference. […]"}, "[2]": {"tested_on": "HepG2 and HEK-293 cells", "parameters": "method as in PMID 39241564, PMID 37709940", "conditions": "10 h of exposure, cited from earlier work"}, "[3]": {"tested_on": "HEK 293 cells", "assay": "TPC assay (total protein content, proliferation)", "format": "cell-based, human", "description": "(§1) The cytotoxic potential of the veterinary drug and its mixtures with cannabidiol at two non-toxic concentrations: 1.56 and 3.15 µg/mL, on the human SH-SY5Y, HepG2 and HEK 293 cell lines was assessed by decreased viability of the cells within five biochemical endpoints: mitochondrial activity and lysosomal activity (MTT assays, reducing the tetrazolium dye MTT 3-(4,5-dimethylthiazol-2-yl)-2,5-diphenyltetrazolium bromide and neutral red uptake (NRU) assays), total protein content (TPC assay), cellular membrane integrity (leakage lactate dehydrogenase (LDH) assay) and DNA synthesis (the bromodeoxyuridine/5-bromo-2′-deoxyuridine incorporation into the DNA cells (BrdU) assay) after 72 h exposition. Data obtained from the measurement of the optical density in these assays were transformed to percentages in relation to the negative control group (0.1% DMSO in medium), considered to be 100% for the MTT, NRU, TPC and BrdU assays and 0% for the LDH assay. 1% Trition-X 100 solution in medium was used as the positive controls, (Figure 3).\n(§2) The human neuroblastoma (SH-SY5H), hepatoma (HepG2) and kidney cells (HEK 293) cells were purchased from the American Type Culture Collection: ATCCCRL-2266,ATCC HB-8065 and ATCC CRL-1573, respectively. These cells were cultured in Minimum Essential Medium Eagle (MEME) (ATCC). The media were supplemented with 10% FBS, 1% L-glutamine (and 1% antibiotic solution (P4333 Sigma). The cells were maintained in 75 cm^2 cell culture flasks (NUNC) in a humidified incubator at 37 °C in an atmosphere of 5% CO2. The medium was refreshed every two or three days, and the cells were subcultured by 0.25% trypsin–0.02% EDTA after reaching 70–80% confluence. Single cell suspensions were prepared and adjusted to a density of 2 × 10^5 cell/mL^−1 (SH-SY5H), 1 × 10^5 cell/mL^−1 (HepG2) and 1 × 10^5 cell/mL^−1 (HEK-293). The cell suspension was transferred to 96-well plates (100 µL/well) or Lab-Tek chamber slides (8 wells) (Nunc) for staining and incubated for 24 h before the exposure to the studied compounds. Stock solutions of tiamulin fumarate and cannabidiol were prepared in DMSO and diluted with culture medium to obtain a concentration range from 1.56 to 200 µg/mL and 1.56 or 3.156 µg/mL, respectively. The selection of tiamulin concentrations was based on data from the literature and pilot studies. The final concentration of DMSO was 0.1% in the medium. The same final concentrations of the solvent and the 1% Trition-X 100 solution were used as the negative and positive controls, respectively. A total of 500 µM hydrogen peroxide (H2O2) in was used as the positive control in the DCFH assay. […] As a negative control, cultured cells were grown in the absence of studied compounds. Each concentration was tested in six replicates in three independent experiments. Cytotoxicity was assessed after 72 h of exposure of the cells to the compounds. The medium was not changed during the incubation time.\n(§3) This assay is based upon staining the total cellular protein (proliferation). After the incubation, the medium containing the drug was removed, and 100 µL Coomassie brilliant blue R-250 dye was added to each well. The plate was shaken for 10 min. Then, the stain was removed and the cells were rinsed twice with 100 µL of washing solution (glacial acetic acid/ethanol/water, 5:10:85, v:v:v). After that, 100 µL of the desorbing solution (1 M potassium acetate) was added, and plates were shaken again for 10 min. The absorbance was measured at 595 nm in a Synergy 2 Multi-Mode Microplate Reader (BioTek® Instruments Inc., Winooski, VT, USA) using a blank as a reference. Cytotoxicity was expressed as a percentage of the negative control (0.1% DMSO in medium).\n(§4) This study was performed in three independent experiments. The obtained results are presented as mean values ± SD (standard deviation). […]"}, "[4]": {"tested_on": "SH-SY5Y cells", "assay": "TPC assay (total protein content, proliferation)", "format": "cell-based, human", "conditions": "72 h", "description": "as §1, §2, §3, §4"}, "[5]": {"tested_on": "HepG2 cells", "assay": "TPC assay (total protein content, proliferation)", "format": "cell-based, human", "conditions": "HepG2, 72 h", "description": "as §1, §2, §3, §4"}, "[6]": {"tested_on": "MDA-MB-231", "parameters": "method as in PMID 28399915", "conditions": "MDA-MB-231, dose 6.25–100 µg/mL, treatment period 12–48 h; cited from earlier work"}, "[7]": {"tested_on": "SH-SY5Y, HepG2 and HEK-293 cells", "assay": "Cellular morphology, May-Grünwald-Giemsa staining", "format": "cell-based, human", "conditions": "May-Grunwald staining", "description": "This method was used to illustrate the changes that occurred in cell morphology under the influence of the tested compounds. The staining was performed on 24-well plates. The cells at a density of 1 × 10^5 cells/mL were used. After 24 h of incubation with the examined drugs or without them (control), the culture media was removed and the cells were stained with 1 mL of May–Grünwald dye for 3 min at room temperature. Then, 1 mL of deionized water was added to each plate. After 3 min of incubation at room temperature, the liquid was removed. All the plates were rinsed with deionized water, and then the cells were stained with Giemsa dye (dilution 1:20) for 30 min at room temperature. After this time, the dye was removed and the wells were rinsed with 1 mL of deionized water and then allowed to dry. The images were taken using a light microscope (Zeiss, Obercochem, Germany)."}, "[8]": {"tested_on": "primary porcine hepatocytes", "parameters": "method as in PMID 10682383", "conditions": "250 µM (123.5 µg/mL), 24 h of exposure; cited from earlier work"}, "[9]": {"conditions": "Homo sapiens, read-out: inhibited concentration (IC50), TPC"}}, "note": "Several values for one entry are separate records, joined by “and”; a condition that tells them apart may be missing. Identical values can stand only once. Counter-ions that a name gives are not always drawn. Like-named read-outs stand apart in the source and are kept apart here."}
{"smiles": "C=C[C@]1(C)C[C@@H](OC(=O)CSCCN(CC)CC)[C@]2(C)[C@H](C)CC[C@]3(CCC(=O)[C@H]32)[C@@H](C)[C@@H]1O", "note": "[T, tiamulin fumarate]", "values": [{"measurement": "IC50", "setting": "[1]", "result": "34.7 ± 1", "unit": "µg/mL"}, {"measurement": "concentrations with cytotoxic effects", "setting": "[2]; converted from µM", "result": "49.4 µg/mL and 98.8 µg/mL"}, {"measurement": "concentrations with cytotoxic effects", "setting": "[2]", "result": "100 µM and 200 µM"}, {"measurement": "tiamulin concentration that inhibited proliferation", "setting": "[3]; HEK-293, 72 h", "result": 12.5, "unit": "µg/mL"}, {"measurement": "IC50", "setting": "[3]; Homo sapiens, HEK293, 72 h, read-out: inhibited concentration (IC50), TPC", "result": "8.5 ± 0.6", "unit": "µg/mL"}, {"measurement": "tiamulin concentration that decreased total protein content / inhibited proliferation", "setting": "[4]", "result": 25, "unit": "µg/mL"}, {"measurement": "IC50", "setting": "[4]; [9]", "result": "169 ± 3.3", "unit": "µg/mL"}, {"measurement": "tiamulin concentration that inhibited cell proliferation", "setting": "[5]", "result": 50, "unit": "µg/mL"}, {"measurement": "IC50", "setting": "[5]; [9]", "result": "26.7 ± 1.4", "unit": "µg/mL"}, {"measurement": "cell viability", "setting": "[6]", "result": "cell viability decreased with increasing dose"}, {"measurement": "changes in cell morphology", "setting": "[7]", "result": "detachment from the adhesion surface"}, {"measurement": "ROS production in the hepatocyte culture", "setting": "[8]", "result": "increased ROS production"}]}
